Drawing on ChEMBL document CHEMBL5608163, “Structure modification of anoplin for fighting resistant bacteria” (Eur J Med Chem, 2024), this text covers MIC and HC10 for seven compounds.

Structures are written as SMILES. Square brackets hold non-standard residues; d marks the D form. Peptide text beside a SMILES is read from it. 2Nal = N[C@@H](Cc1ccc2ccccc2c1)C(=O)O; hLeu = CC(C)CC[C@H](N)C(=O)O; Nle = CCCC[C@H](N)C(=O)O; Nva = CCC[C@H](N)C(=O)O

In series [1] the test system is Escherichia coli. Briefly: Antimicrobial activity against Escherichia coli ATCC 25922 assessed as reduction in microbial growth measured after 24 hrs by CLSI based broth microdilution method. Type of series: functional.
Series [2] relates to Erythrocyte. The series is described as follows: Hemolytic activity in human erythrocytes incubated for 1 hr by ELISA reader analysis. The class given is toxicity, cell-based.

On to `CCCC[C@H](NC(=O)[C@H](CCCC)NC(=O)[C@@H](NC(=O)[C@H](CCCCN)NC(=O)[C@@H](NC(=O)[C@H](CCCNC(=N)N)NC(=O)[C@H](CCCCN)NC(=O)[C@H](CCCC)NC(=O)[C@H](CCCC)NC(=O)CN)[C@@H](C)CC)[C@@H](C)O)C(N)=O` (H-G[Nle][Nle]KRIKT[Nle][Nle]-NH2), for which the MIC in series [1] was 100 µM. Besides, the HC10 in series [2] was above 500 µM.

Turning to `CCC[C@H](NC(=O)[C@H](CC(C)C)NC(=O)[C@@H](NC(=O)[C@H](CCCCN)NC(=O)[C@@H](NC(=O)[C@H](CCCNC(=N)N)NC(=O)[C@H](CCCCN)NC(=O)[C@H](CC(C)C)NC(=O)[C@H](CCC)NC(=O)CN)[C@@H](C)CC)[C@@H](C)O)C(N)=O` (H-G[Nva]LKRIKTL[Nva]-NH2), in series [1], the MIC is above 200 µM. In series [2], this compound yielded an HC10 above 500 µM.

`CCC[C@H](NC(=O)[C@H](CC(C)C)NC(=O)[C@@H](NC(=O)[C@H](CCCCN)NC(=O)[C@H](Cc1ccc2ccccc2c1)NC(=O)[C@H](CCCNC(=N)N)NC(=O)[C@H](CCCCN)NC(=O)[C@H](CC(C)C)NC(=O)[C@H](CCC)NC(=O)CN)[C@@H](C)O)C(N)=O` (H-G[Nva]LKR[2Nal]KTL[Nva]-NH2): the MIC in series [1] is 100 µM. In series [2], this compound yielded an HC10 above 500 µM.

In the case of `CCC[C@H](NC(=O)[C@H](CCC)NC(=O)[C@@H](NC(=O)[C@H](CCCCN)NC(=O)[C@@H](NC(=O)[C@H](CCCNC(=N)N)NC(=O)[C@H](CCCCN)NC(=O)[C@H](CCC)NC(=O)[C@H](CCC)NC(=O)CN)[C@@H](C)CC)[C@@H](C)O)C(N)=O` (H-G[Nva][Nva]KRIKT[Nva][Nva]-NH2), in series [1], the MIC is above 200 µM. Also, the HC10 in series [2] is above 500 µM.

As to `CCC[C@H](NC(=O)[C@H](CCC)NC(=O)[C@@H](NC(=O)[C@H](CCCCN)NC(=O)[C@H](Cc1ccc2ccccc2c1)NC(=O)[C@H](CCCNC(=N)N)NC(=O)[C@H](CCCCN)NC(=O)[C@H](CCC)NC(=O)[C@H](CCC)NC(=O)CN)[C@@H](C)O)C(N)=O` (H-G[Nva][Nva]KR[2Nal]KT[Nva][Nva]-NH2), in series [1], the MIC is above 200 µM. In series [2], this compound registered an HC10 above 500 µM.

`CC[C@H](C)[C@H](NC(=O)[C@H](CCCNC(=N)N)NC(=O)[C@H](CCCCN)NC(=O)[C@H](CC(C)C)NC(=O)[C@H](CCC(C)C)NC(=O)CN)C(=O)N[C@@H](CCCCN)C(=O)N[C@H](C(=O)N[C@@H](CC(C)C)C(=O)N[C@@H](CCC(C)C)C(N)=O)[C@@H](C)O` (H-G[hLeu]LKRIKTL[hLeu]-NH2): the MIC in series [1] was 12.5 µM. The HC10 in series [2] stood at 380 µM.

On to `CC[C@H](C)[C@H](NC(=O)[C@H](CCCNC(=N)N)NC(=O)[C@H](CCCCN)NC(=O)[C@H](CCC(C)C)NC(=O)[C@H](CCC(C)C)NC(=O)CN)C(=O)N[C@@H](CCCCN)C(=O)N[C@H](C(=O)N[C@@H](CCC(C)C)C(=O)N[C@@H](CCC(C)C)C(N)=O)[C@@H](C)O` (H-G[hLeu][hLeu]KRIKT[hLeu][hLeu]-NH2), for which the MIC in series [1] worked out at 12.5 µM. For the same compound, the HC10 in series [2] was 125 µM.
